Patent US9249185B2, “Peptides for promoting angiogenesis and an use thereof” (INDUSTRY-ACADEMIC COOPERATION FOUNDATION, SOOKMYUNG WOMEN'S …, priority 2010, dated 2016)

Tests used:
[1] = tested on: human umbilical vein endothelial cells (HUVECs); assay: Proliferation of HUVECs (CyQUANT kit); assay type: cell-based; conditions: 48 hours with peptide, negative control (untreated) = 100
Procedure: In order to investigate the effect of the 7 peptides prepared in Example 1 on blood vessel formation, human umbilical vein endothelial cells (HUVECs) were treated with the peptide of the present invention and their proliferation was observed.
HUVECs were cultured in endothelial cell basal medium-2 (EBM-2, Clonetics Co., San Diego, USA) containing 2% fetal bovine serum (FBS). The cultured HUVECs were transferred to a 96-well plate, with 1000 cells per each well. After culturing for 24 hours followed by addition of the 7 peptides of the peptide of the present invention to each well, they were further cultured for 48 hours. The cells treated with VEGF instead of the peptide of the present invention and those treated with nothing were cultured under the same condition, as positive control group and negative control group, respectively. Upon completion of the culturing, the degree of cell proliferation was measured using the CyQUANT kit (Invitrogen, USA).

[2] = tested on: HUVECs; assay: Migration of HUVECs through polycarbonate filter chamber; assay type: cell-based, human; conditions: 37° C. for 10 hours, negative control (untreated) = 100
Procedure: In order to investigate the effect of the 7 peptides prepared in Example 1 on blood vessel formation, migration of HUVECs was measured.
The bottom portion of a chamber of a 24-well plate (Corning Costar, USA) having a polycarbonate filter with pores therebelow was coated with 0.5 mg/mL collagen type 1 ([…]). After adding EBM-2 containing the 7 peptides of the peptide of the present invention to the bottom portion of the chamber, HUVECs were inoculated at the upper portion of the chamber, with 1×10^5 cells per well. After incubation at 37° C. for 10 hours, the cells that had passed through the polycarbonate filter were fixed with methanol, stained with hematoxylin, and counted under a microscope.

Substance | Cell proliferation (%) [1] [%] | Cell migration (%) [2] [%]
AGES (Pep_1 Artificial Peptide for Promotion of Angiogenesis) | 109.6 | 118.0
AGESQK (Pep_11 Artificial Peptide for Promotion of Angiogenesis) | 146.5 | 202.2
KNAGDS (Pep_3 Artificial Peptide for Promotion of Angiogenesis) | 115.7 | 125.8
KNAGHS (Pep_4 Artificial Peptide for Promotion of Angiogenesis) | 119.6 | 135.5
PKAGES (Pep_2 Artificial Peptide for Promotion of Angiogenesis) | 104.4 | 159.5
RQAGDS (Pep_5 Artificial Peptide for Promotion of Angiogenesis) | 207.5 | 165.4
RQAGHS (Pep_6 Artificial Peptide for Promotion of Angiogenesis) | 138.0 | 138.6
Vascular endothelial growth factor [VEGF] | 166.0 | 146.3
